Read-outs that look alike come from different tables or passages of the source. Some results are limits rather than exact numbers.

For orientation: IC50 means the concentration at which inhibition is half-maximal.

For assay [1], the system named is Cullin-3 (CUL3) neddylation. Description: AlphaLISA assay for Cullin-3 (CUL3) neddylation in TF 1 cells. Type of assay: cell-based. The conditions noted are these: 3 hours treatment. An outline of the steps: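 TF 1 cells in unsupplemented IMDM treated with compound concentrations for 3 h, then lysed. CUL3 neddylation detected by AlphaLISA (biotinylated anti-NEDD8, anti-CUL3 acceptor beads overnight, streptavidin donor beads 1 h); normalized to vehicle (0%) and 1 μM DI-1548 (100%), IC50 from Hill fits.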
On the technique in general: In Alpha technology, singlet oxygen from a donor bead excites a nearby acceptor bead.

Assay [2] addresses DCN1 (DCUND1) protein PONY domain (Homo sapiens (Human), UniProt Q96GG9). The experiment in a line: TR-FRET assay, DCN1 binding with FAM-labeled probe. The essentials: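 Tb-DCN1 PONY domain (E. coli, biotin/streptavidin-Tb); FAM-labelled non-covalent inhibitor probe; TritonX buffer, 200 mM NaCl; 5 nM DCN1 + 20 nM probe or 0.31 nM DCN1 + 900 nM total probe; 0.1% DMSO; TR-FRET read 1, 5, 24 hrs.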

The target of assay [3] is DCN1 protein (Homo sapiens (Human), UniProt Q96GG9). The experiment in a line: Intact Protein MS Analysis with the RapidFire-TOF System (covalent adduct formation). Type of assay: binding. The conditions noted are these: MS Emax; 400 nM DCN1, 3 hours at room temperature. The essentials: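 Tag-cleaved human DCN1 (400 nM) expressed in E. coli, in 25 mM Tris-HCl, 200 mM NaCl, 1 mM DTT, was incubated with 11 compound concentrations for 3 h at room temperature and quenched with 0.2% formic acid. Intact-protein Q-TOF MS with deconvolution detected the compound adduct mass.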

[4] abbreviates: 24 hr after treatment with compound, read-out: TR FRET IC50 24 hr.
The mark [5] stands for this setting: read-out: TR FRET IC50 1 hr, 1 hr after treatment with compound.
The mark [6] stands for this setting: TR FRET IC50 1 hr (nM), 1 hr after treatment with compound.

Chain of DCN1 (DCUND1) protein PONY domain (Q96GG9 60-248): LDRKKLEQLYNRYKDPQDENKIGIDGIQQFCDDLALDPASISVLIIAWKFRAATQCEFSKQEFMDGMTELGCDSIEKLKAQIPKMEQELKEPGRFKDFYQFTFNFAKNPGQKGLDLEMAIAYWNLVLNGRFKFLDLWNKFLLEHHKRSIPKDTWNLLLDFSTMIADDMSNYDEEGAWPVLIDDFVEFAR
Chain of DCN1 protein (Q96GG9 whole entry): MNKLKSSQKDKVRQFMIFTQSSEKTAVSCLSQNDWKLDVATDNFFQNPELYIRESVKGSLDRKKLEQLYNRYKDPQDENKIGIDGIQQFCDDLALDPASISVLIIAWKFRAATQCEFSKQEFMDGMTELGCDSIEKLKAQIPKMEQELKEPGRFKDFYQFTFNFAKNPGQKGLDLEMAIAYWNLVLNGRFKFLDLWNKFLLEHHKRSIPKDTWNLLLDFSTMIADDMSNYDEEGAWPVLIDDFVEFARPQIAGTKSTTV

On to `CCN1C(=O)[C@@H](NC(=O)c2cccc(C(F)(F)F)c2)[C@@H](c2ccc(F)cc2)c2c(C(=O)N3CC[C@H]3C#N)nn(-c3ccccc3)c21` [Compound I-275], for which the IC50 in assay [1] (Homo sapiens, TF-1, 3 h) was at most 0.1 µM; in assay [2] (setting [4]), at most 200 nM; in assay [2] (setting [5]), at most 200 nM. Besides, the “% Adduct Formation” value in assay [3] was “++ (MS Emax % adduct formation greater than 30.0 and less than or equal to 80.0)”.

For `CCN1C(=O)[C@H](NC(=O)c2cccc(C(F)(F)F)c2)[C@H](c2ccc(F)cc2)c2c(C(=O)N3CCOCC3C#N)nn(-c3ccccc3)c21` (single isomer, unassigned) [Compound I-296], the IC50 in assay [1] (Homo sapiens, TF-1, 3 h) was at most 0.1 µM; in assay [2] (setting [4]), at most 200 nM; in assay [2] (setting [6]), 1000 to 3000 nM. Further, in assay [3], the “% Adduct Formation” value was “++ (MS Emax % adduct formation greater than 30.0 and less than or equal to 80.0)”.

Take `CCN1C(=O)[C@@H](NC(=O)c2cccc(C(F)(F)F)c2)[C@@H](c2ccc(F)cc2)c2c(C(=O)N(C)[C@@H](C#N)CCN3CC4CC(C3)O4)nn(-c3ccccc3)c21` [Compound I-313]: the IC50 is at most 0.1 µM in assay [1] (Homo sapiens, TF-1, 3 h); at most 200 nM in assay [2] (setting [4]); at most 200 nM in assay [2] (setting [5]). Also, the “% Adduct Formation” value in assay [3] was “++ (MS Emax % adduct formation greater than 30.0 and less than or equal to 80.0)”.

As to `CCN1C(=O)[C@@H](NC(=O)c2cccc(C(F)(F)F)c2)[C@@H](c2ccc(F)cc2)c2c(C(=O)N3CCC[C@H]3C#N)nn(C3CC3)c21` [Compound I-354], the concentration for half-maximal inhibition (IC50) in assay [1] (Homo sapiens, TF-1, 3 h) is at most 0.1 µM; in assay [2] (setting [4]) it was at most 200 nM; in assay [2] (setting [5]), at most 200 nM. Also, the “% Adduct Formation” value in assay [3] was “++ (MS Emax % adduct formation greater than 30.0 and less than or equal to 80.0)”.

On to `CCN1C(=O)[C@@H](NC(=O)c2cccc(C(F)(F)F)c2)[C@@H](c2ccc(F)cc2)c2c(C(=O)N(C)[C@@H](C#N)CCN(C)C3COC3)nn(-c3ccccc3)c21` (single isomer, unassigned) [Compound I-311], for which the IC50 in assay [1] (Homo sapiens, TF-1, 3 h) is at most 0.1 µM; in assay [2] (setting [4]), at most 200 nM; in assay [2] (setting [5]), at most 200 nM. The “% Adduct Formation” value in assay [3] is “+ (MS Emax % adduct formation greater than or equal to 0.0 and less than or equal to 30.0)”.

Take `CCN1C(=O)[C@@H](NC(=O)c2cccc(C(F)(F)F)c2)[C@@H](c2ccc(F)cc2)c2c(C(=O)N(C)[C@H](C)C#N)nn(C3CCOCC3)c21` [Compound I-367]: the concentration for half-maximal inhibition (IC50) is at most 0.1 µM in assay [1] (Homo sapiens, TF-1, 3 h); at most 200 nM in assay [2] (setting [4]); at most 200 nM in assay [2] (setting [5]). For the same compound, the “% Adduct Formation” value in assay [3] was “+++ (MS Emax % adduct formation greater than 80.0 and less than or equal to 100.0)”.

As to `CCN1C(=O)[C@@H](NC(=O)c2cccc(C(F)(F)F)c2)[C@@H](c2ccc(F)cc2)c2c(C(=O)N(CC#N)C3CC3)nn(C3CC3)c21` [Compound I-355], the concentration for half-maximal inhibition (IC50) in assay [1] (Homo sapiens, TF-1, 3 h) is at most 0.1 µM; in assay [2] (setting [4]) it was at most 200 nM; in assay [2] (setting [5]), at most 200 nM. Further, the “% Adduct Formation” value in assay [3] is “+++ (MS Emax % adduct formation greater than 80.0 and less than or equal to 100.0)”.

Turning to `CCN1C(=O)[C@@H](NC(=O)c2cccc(C(F)(F)F)c2)[C@@H](c2ccc(F)cc2)c2c(C(=O)N3CCNC[C@@H]3C#N)nn(-c3ccccc3)c21` [Compound I-280], the IC50 is at most 0.1 µM in assay [1] (Homo sapiens, TF-1, 3 h); at most 200 nM in assay [2] (setting [4]); at most 200 nM in assay [2] (setting [5]). The “% Adduct Formation” value in assay [3] was “+++ (MS Emax % adduct formation greater than 80.0 and less than or equal to 100.0)”.

Take `CCN1C(=O)[C@@H](NC(=O)c2cccc(C(F)(F)F)c2)[C@@H](c2ccc(F)cc2)c2c(C(=O)N(C)CC#N)nn(C3CCOCC3)c21` [Compound I-366]: the IC50 in assay [1] (Homo sapiens, TF-1, 3 h) is at most 0.1 µM; in assay [2] (setting [4]) it was at most 200 nM; in assay [2] (setting [5]), at most 200 nM. Besides, in assay [3], the “% Adduct Formation” value was “+++ (MS Emax % adduct formation greater than 80.0 and less than or equal to 100.0)”.

Take `CCN1C(=O)[C@@H](NC(=O)c2cccc(C(F)(F)F)n2)[C@@H](C2CC2)c2c(C(=O)N3[C@H](C#N)C[C@H]4C[C@H]43)nn(C3CCOCC3)c21` [Compound I-390]: the IC50 is at most 0.1 µM in assay [1] (Homo sapiens), at most 200 nM in assay [2] (setting [4]) and at most 200 nM in assay [2] (setting [5]). For the same compound, the “% Adduct Formation” value in assay [3] is “+++ (MS Emax % adduct formation greater than 80.0 and less than or equal to 100.0)”.

Consider `CCN1C(=O)[C@@H](NC(=O)c2cccc(C(F)(F)F)c2)[C@@H](c2ccc(F)cc2)c2c(C(=O)N3CCOC[C@H]3C#N)nn(-c3ccccc3)c21` (mixture of isomers) [Compound I-295], for which the figures for the IC50 in assay [1], in assay [2] (setting [4]) and in assay [2] (setting [6]) were at most 0.1 µM, at most 200 nM and 1000 to 3000 nM, respectively. Besides, the “% Adduct Formation” value in assay [3] is “+++ (MS Emax % adduct formation greater than 80.0 and less than or equal to 100.0)”.

Take `CCN1C(=O)[C@@H](NC(=O)c2cccc(C(F)(F)F)c2)[C@@H](c2ccc(F)cc2)c2c(C(=O)N(CC#N)C3CC3)nn(C3CCOCC3)c21` [Compound I-351]: the IC50 was at most 0.1 µM in assay [1] (Homo sapiens, TF-1, 3 h); at most 200 nM in assay [2] (setting [4]); at most 200 nM in assay [2] (setting [5]). In assay [3], the “% Adduct Formation” value was “+++ (MS Emax % adduct formation greater than 80.0 and less than or equal to 100.0)”.

On to `CCN1C(=O)[C@@H](NC(=O)c2cccc(C(F)(F)F)c2)[C@@H](c2ccc(F)cc2)c2c(C(=O)N3CCC[C@H]3C#N)nn(-c3cccc(OCCCN4CCOCC4)c3)c21` [Compound I-338], for which the IC50 in assay [1] (Homo sapiens, TF-1, 3 h) was at most 0.1 µM; in assay [2] (setting [4]) it was at most 200 nM; in assay [2] (setting [6]) it was 1000 to 3000 nM. Further, in assay [3], the “% Adduct Formation” value was “+++ (MS Emax % adduct formation greater than 80.0 and less than or equal to 100.0)”.

Regarding `CCN1C(=O)[C@@H](NC(=O)c2cccc3c2OCO3)[C@@H](C2CC2)c2c(C(=O)N3[C@H](C#N)C[C@H]4C[C@H]43)nn(C3CCOCC3)c21` [Compound I-397], the half-inhibitory concentration (IC50) in assay [1] (Homo sapiens) is at most 0.1 µM; in assay [2] (setting [4]) it was at most 200 nM; in assay [2] (setting [5]), at most 200 nM. Also, the “% Adduct Formation” value in assay [3] was “+++ (MS Emax % adduct formation greater than 80.0 and less than or equal to 100.0)”.

For the compound `CCN1C(=O)[C@@H](NC(=O)c2cccc(C(F)(F)F)c2)[C@@H](c2ccc(F)cc2)c2c(C(=O)N(CC#N)CCN3CCOCC3)nn(-c3ccccc3)c21` (racemic) [Compound I-320], the IC50 was at most 0.1 µM in assay [1] (Homo sapiens, TF-1, 3 h); at most 200 nM in assay [2] (setting [4]); at most 200 nM in assay [2] (setting [5]). The “% Adduct Formation” value in assay [3] is “+++ (MS Emax % adduct formation greater than 80.0 and less than or equal to 100.0)”.

Consider `CCCn1nc(C(=O)N2[C@H](C#N)C[C@H]3C[C@H]32)c2c1N(CC)C(=O)[C@@H](NC(=O)c1cccc(C(F)(F)F)c1)[C@H]2c1ccc(F)cc1` [Compound I-331], for which the IC50 in assay [1] (Homo sapiens, TF-1, 3 h) is at most 0.1 µM; in assay [2] (setting [4]), at most 200 nM; in assay [2] (setting [5]), at most 200 nM. The “% Adduct Formation” value in assay [3] is “+++ (MS Emax % adduct formation greater than 80.0 and less than or equal to 100.0)”.

For the compound `CCN1C(=O)[C@@H](NC(=O)c2csc(C(F)(F)F)n2)[C@@H](C2CC2)c2c(C(=O)N3[C@H](C#N)C[C@H]4C[C@H]43)nn(C3CCOCC3)c21` [Compound I-392], the IC50 was at most 0.1 µM in assay [1] (Homo sapiens), at most 200 nM in assay [2] (setting [4]) and at most 200 nM in assay [2] (setting [5]). In addition, the “% Adduct Formation” value in assay [3] was “+++ (MS Emax % adduct formation greater than 80.0 and less than or equal to 100.0)”.

Regarding `CCN1C(=O)[C@@H](NC(=O)c2cccc(C(F)(F)F)c2)[C@@H](C2CC2)c2c(C(=O)N3CCOC[C@H]3C#N)nn(-c3ccccc3)c21` [Compound I-382], the IC50 in assay [1] (Homo sapiens, TF-1, 3 h) was at most 0.1 µM; in assay [2] (setting [4]), at most 200 nM; in assay [2] (setting [6]) it was 200 to 1000 nM. In assay [3], the “% Adduct Formation” value is “+++ (MS Emax % adduct formation greater than 80.0 and less than or equal to 100.0)”.

With `CCN1C(=O)[C@@H](NC(=O)c2ccc3c(c2)CCC3)[C@@H](C2CC2)c2c(C(=O)N3[C@H](C#N)C[C@H]4C[C@H]43)nn(C3CCOCC3)c21` [Compound I-391], the IC50 was at most 0.1 µM in assay [1] (Homo sapiens), at most 200 nM in assay [2] (setting [4]) and at most 200 nM in assay [2] (setting [5]). In addition, the “% Adduct Formation” value in assay [3] was “+++ (MS Emax % adduct formation greater than 80.0 and less than or equal to 100.0)”.

As to `CCN1C(=O)[C@@H](NC(=O)c2cccc(C(F)(F)F)c2)[C@H](c2ccc(F)cc2)c2c(CC(=O)NCC#N)nn(-c3ccccc3)c21` [Compound I-298, N-((4R,5S)-3-(2-((cyanomethyl)amino)-2-oxoethyl)-7-ethyl-4-(4-fluorophenyl)-6-oxo-1-phenyl-4,5,6,7-tetrahydro-1H-pyrazolo[3,4-b]pyridin-5-yl)-3-(trifluoromethyl)benzamide], the IC50 was 0.1 to 1 µM in assay [1] (Homo sapiens, TF-1, 3 h); 200 to 1000 nM in assay [2] (setting [4]); 200 to 1000 nM in assay [2] (setting [6]). Further, the “% Adduct Formation” value in assay [3] was “+ (MS Emax % adduct formation greater than or equal to 0.0 and less than or equal to 30.0)”.

`CCCn1nc(C(=O)N(CC#N)C2CC2)c2c1N(CC)C(=O)[C@@H](NC(=O)c1cccc(C(F)(F)F)c1)[C@H]2c1ccc(F)cc1` [Compound I-356]: the IC50 in assay [1] (Homo sapiens, TF-1, 3 h) was at most 0.1 µM; in assay [2] (setting [4]) it was at most 200 nM; in assay [2] (setting [6]), 200 to 1000 nM. In addition, in assay [3], the “% Adduct Formation” value is “+++ (MS Emax % adduct formation greater than 80.0 and less than or equal to 100.0)”.
